From patent US10233201B2, “Class of HDAC inhibitors expands the renal progenitor cells population and improves the rate of recovery from acute kidney injury” (University of Pittsburgh—Of the Commonwealth System of …, priority 2012, dated 2019)

Experiments:
[1] = tested on: pax2a, pax8 expression (kidney field); assay: In situ hybridization for renal progenitor markers pax2a, pax8 / kidney field; assay type: in vivo, zebrafish
Protocol: (§1) PTBA was synthesized as described below. Hydroxyurea and aphidicolin were obtained from Sigma-Aldrich.
(§2) In situ hybridization and immunocytochemistry: In situ hybridization was performed as previously described with some modifications. 142 Hybridization temperature was 65° C. Embryos were blocked in 2% blocking reagent (Roche) with 5% sheep serum in MAB (100 mM maleic acid and 150 mM NaCl [pH 7.5]). Whole-mount immunocytochemistry with 1:25 mouse anti-α6F antibody (Developmental Studies Hybridoma Bank) and 1:100 Cy3 secondary antibody (Jackson ImmunoResearch) was performed as described previously. 108 Embryos were embedded in JB-4 for sectioning per the manufacturer's instructions (Polysciences), sectioned at 5 μm, and mounted with Cytoseal 60 (Richard-Allan Scientific).

pronephros = assay: Pronephric markers at 48 hpf (cdh17, NaK-ATPase, wt1a, slc4a4, slc12a1); assay type: in vivo, zebrafish; conditions: 3 μM
Protocol: as §1, §2

histone H4 acetylation = assay: Histone H4 hyperacetylation Western blot in embryos; assay type: in vivo, zebrafish; conditions: 24 hpf embryos treated 6 hours; 3 μM PTBA, 25 μM PBA, 200 nM TSA
Protocol: It was next determined whether the HDACi function of PTBA was quantifiable in vivo. 24 hpf embryos were treated with 3 μM PTBA, 25 μM PBA, or 200 nM TSA for 6 hours. Protein extracts were prepared and immunoblotted with an anti-hyperacetylated histone H4 antibody. […] Furthermore, increasing the compound concentration caused a corresponding increase in hyperacetylation (FIG. 21).
SDS-PAGE and Western blotting were performed as described previously with some modifications (Noel, E. S. et al. Organ-specific requirements for Hdac1 in liver and pancreas formation. Dev Biol 322, 237-250, (2008)). Proteins were separated on 18% SDS-PAGE gels. Membranes were incubated at 4° C. overnight with 1:1000 anti-hyperacetylated histone H4 antibody (06-946, Millipore) or 1:1000 anti-α-tubulin antibody (Sigma-Aldrich) in PBT containing 5% nonfat milk.

[2] = tested on: lhx1a, pax2a, pax8, ntla transcripts; assay: Relative qPCR in the trunk region of 10-somite embryos; assay type: in vivo, zebrafish; conditions: 3 μM
Excerpt: Conducted as described in WO 2012109527 and in priority U.S. provisional Patent Application No. 61/720,621.

[3] = tested on: Acetylated Histone H3 K9 (Ac-H3 K9); assay: Renal histone H3 K9 acetylation after single injection in CD1 mice; assay type: in vivo, mouse
Protocol: PTBA analogues are soluble in 1% DMSO/water, are administered subcutaneously as a single injection in adult CD1 mice, and kidneys harvested at 12, 24 and 48 hours to evaluate histone acetylation (which should increase with HDACi). PTBA analogs are used at a dose range determined from comparative dose efficacy with m4PTB in the secondary zebrafish screen. Acetylated Histone H3 K9 (Ac-H3 K9) is evaluated, as this is most easily detected by Western blot in nuclear extracts from mouse renal tissues. Preliminary studies compared the effect of Trichostatin A (an established, but toxic HDACi) at an effective dose in the zebrafish screen ([…]) with an equivalent dose of m4PTB (0.8 mM), and then X2 and X4 dose increments (molar concentration in vivo based on estimate uniform distribution relative to body mass of water). 3.4 mg/kg (4×) m4PTB induced maximal expression of Ac-H3 K9 after 24 hours (FIG. 36). This effect was increased compared with TSA or lower doses of m4PTB, so we elected to use this dose of m4PTB (3.4 mg/kg) for AKI studies in mice. […]
We evaluated efficacy and effective dosage of a second-generation PTBA analogue, m4PTB, by determining the kinetics of renal Histone H3 K9 acetylation (H3K9Ac) following a single SC injection. […]

| Structure (SMILES) | embryos with expanded pax2a expression ([1]; 3 μM, 10-somite embryos) [%] | pax2a expression at 24 hpf ([1]; 3 μM, treatment begun at 16.5 hpf (15 somites)) | pax2a expression at 24 hpf ([1]; 3 μM, treatment initiated between 2 hpf and 14 hpf (10 somites)) | effect on size of the kidney field / renal markers (in situ hybridization) ([1]; screen hits, data not shown) | embryos with expansion of cdh17 (pronephros) [%] | expansion of slc4a4 (pronephros) [%] | expansion of slc12a1 (pronephros) [%] | expansion of wt1a (pronephros) [%] | histone H4 hyperacetylation (histone H4 acetylation) | increase in ntla expression (qPCR) [2] [%] | increase in pax8 expression (qPCR) [2] [%] | lhx1a relative transcript (qPCR) [2] | pax2a expression (qPCR) [2] | persistence of H3K9Ac induction ([3]; 3.4 mg/kg single SC injection) [h] | dose inducing maximal Ac-H3 K9 expression in kidney ([3]; single SC injection, after 24 hours) [mg/kg] |
| --- | --- | --- | --- | --- | --- | --- | --- | --- | --- | --- | --- | --- | --- | --- | --- |
| O=C(O)CCCSc1ccccc1 [PTBA, 4-(phenylthio)butanoic acid] | 95 | no kidney field expansion | expanded pax2a expression | appeared to expand the expression of some renal markers | 89 | 92 | 64 | 74 | hyperacetylation was observed | 80 | 50 | three-fold increase | almost two-fold increase |  |  |
| COC(=O)CCCSc1ccccc1 [UPHD-00025, methyl 4-(phenylsulfanyl) butanoate] |  |  |  |  |  |  |  |  |  |  |  |  |  | 24 | 3.4 |
